Key:
[1] = target: T1, hPRB and NCoR (Homo sapiens, UniProt P06401); test: Mammalian two hybrid assay, recruitment of co-repressor NCoR by hPRB; format: cell-based; conditions: HEK293T, FIGS. 12 and 14
T1 construct: expressed in transfected cells; host or cells: HEK 293T
T1 sequence (P06401 1-933): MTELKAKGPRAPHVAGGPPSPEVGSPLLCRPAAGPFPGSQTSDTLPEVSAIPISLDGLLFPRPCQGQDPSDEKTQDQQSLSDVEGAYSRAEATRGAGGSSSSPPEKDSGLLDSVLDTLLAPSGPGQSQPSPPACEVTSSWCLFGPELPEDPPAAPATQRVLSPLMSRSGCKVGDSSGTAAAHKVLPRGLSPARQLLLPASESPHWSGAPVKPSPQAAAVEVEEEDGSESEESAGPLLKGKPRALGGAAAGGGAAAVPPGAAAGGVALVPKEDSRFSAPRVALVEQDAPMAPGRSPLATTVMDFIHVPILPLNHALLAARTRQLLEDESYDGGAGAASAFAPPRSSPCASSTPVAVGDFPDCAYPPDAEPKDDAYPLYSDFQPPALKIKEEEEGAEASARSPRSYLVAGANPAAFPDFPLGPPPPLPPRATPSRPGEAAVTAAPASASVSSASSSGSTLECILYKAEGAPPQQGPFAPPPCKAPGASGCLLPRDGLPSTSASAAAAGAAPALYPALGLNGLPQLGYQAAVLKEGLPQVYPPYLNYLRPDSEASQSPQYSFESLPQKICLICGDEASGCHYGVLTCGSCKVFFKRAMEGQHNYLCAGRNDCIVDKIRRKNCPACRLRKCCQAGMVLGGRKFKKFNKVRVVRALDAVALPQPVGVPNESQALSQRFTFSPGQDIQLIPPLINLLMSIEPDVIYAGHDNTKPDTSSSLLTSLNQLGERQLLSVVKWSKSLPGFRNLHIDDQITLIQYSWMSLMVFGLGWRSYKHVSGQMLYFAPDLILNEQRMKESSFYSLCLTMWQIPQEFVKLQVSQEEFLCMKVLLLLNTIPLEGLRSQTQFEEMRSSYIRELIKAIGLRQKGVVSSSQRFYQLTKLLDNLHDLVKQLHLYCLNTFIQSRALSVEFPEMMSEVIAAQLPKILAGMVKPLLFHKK
Description: Mammalian Two Hybrid Assays.
To investigate whether hPR was able to recruit transcriptional corepressors upon APRn binding, two hybrid assays have been performed in HEK 293T cells. Cell transfection were carried out according to the protocol used for the PR transactivation assays, with 1 μg of pGAL4-SMRT or pGAL4-NcoR, 2.5 μg of the PR expression vector pV16-PR and 5 μg of the reporter pG5-luc. The plasmid pGAL4-SMRT and pGAL4-NcoR, provided by P. Balaguer, encode the fusion protein between the GAL4 DNA-binding domain (GAL4DBD) and the receptor interacting domain (RID) of the corepressor […], respectively. The expression vector pV16PR encodes the VP16 activation domain of herpes simplex virus fused to the entire hPR and pG5-luc, provided by P. Fuller, encodes the luciferase gene driven by a GAL4-responsive promoter. […] Cell transfection were carried out according to the PR transactivation assays, by using 2 μg of pM-TIF2/Nter-RID or […], 2 μg of the expression vector pV16PR and 5 μg of the reporter pG5luc. The plasmids pM-TIF2/Nter-RID encodes the fusion proteins between the GAL4 DBD and the 1-867 TIF2 sequence corresponding to the Nter and RID domains. The plasmids pMTIF2-Nter encodes the fusion proteins between the GAL4 DBD and the 1-623 TIF2 sequence corresponding to the Nter domain. After 16 h incubation, the transfected cells were washed with PBS containing 2.5 mM EDTA, trypsinized and replated in 24-well plates. […] Cells were lysed and the luciferase and activities were quantified by using a Mithras reader microplates (Berthold).
Both agonist- and antagonist-bound PR regulate gene transcription with the assistance of transcriptional co-repressors (NCoR, SMRT) or co-activators (namely, TIF-2). To characterize the mechanism by which APRn inactivate hPRB, the capacity of hPRB to recruit transcriptional co-regulators upon APRn binding has been evaluated. […]

[2] = tested on: PRB-mediated amphiregulin gene transcription; test: Quantitative RT-PCR of endogenous gene transcription in MDA-MB-231 iPRAB cells; format: cell-based, human; conditions: APRn 1 μM, 6 h, FIG. 10
Description: MDA-MB-231 iPRAB cells were cultured in 6-well plates in RPMI 1640 medium with L-glutamine without phenol red, enriched with 5% DCC serum containing inducer ligand RSL1 (500 nM) or Dox (1 μg/ml) for PRA or PRB expression during 24 h. […] Total RNA was then extracted using TRIZOL reagent (Invitrogen). One μg of total RNA was treated with DNase I Amplification Grade (Invitrogen) and then reverse transcribed using cDNA RT kit from Applied Biosystems (Courtaboeuf, France) and random primers. Following a ten-fold dilution, the cDNA samples were amplified in duplicate by real-time PCR in ABI 7300 apparatus (Applied Biosystems), using the Power SYBR Green PCR Master Mix (Applied Biosystems) in the presence of 300 nM of forward and reverse specific primers. A dissociation curve was also obtained at the end of the reaction to verify the specificity of the pair of primers. Standard curve for PCR calibration of each gene transcript tested was obtained with the corresponding amplicon subcloned in pGEMT-easy (Promega) and verified by sequencing analysis. The expression level of each gene transcript was normalized to 18S RNA level, and results were expressed as means of relative concentrations of six samples (attomole of specific gene cDNA/femtomole of 18S cDNA±SEM.)
The selected APRn (APR16, APR19, APR43, APR47, APR51, APR54) were verified for their agonist and antagonistic properties on endogenous gene transcription. A ligand activated PRB target gene, amphiregulin was selected for these studies (Georgiakaki, M. Mol Endocrinol 2006, 20, 2122) and quantitative RT-PCR analysis was performed in MDA-MB-231 iPRAB cells as described in Materials and Methods.

SMILES | recruitment of co-repressor NCoR by hPRB upon ligand binding [1] | agonistic effect on amphiregulin gene transcription [2]
CC(=O)[C@H]1CC[C@H]2[C@@H]3CC=C4C[C@@H](F)CC[C@]4(C)[C@H]3CC[C@]12C [APR-16, 3β-Fluoropregn-5-en-20-one] | unable to recruit | nearly unable to exert agonistic effect
C[C@]12CCC3C(CC=C4C[C@@H](F)CC[C@@H]43)C1CCC2=O (stereo partly drawn) [APR-47, 3β-Fluoro-19-nor-androst-5-en-17-one] | unable to recruit | nearly unable to exert agonistic effect
CC#C[C@]1(O)CCC2C3CC[C@H]4CCCC[C@@H]4C3CC[C@@]21C (stereo partly drawn) [APR-54, 17α-(1-Propynyl)-19-nor-5-androstan-17β-ol] | unable to recruit | nearly unable to exert agonistic effect
